The structures appear in SMILES notation.

The text below walks through data of patent US9758492B2, “IDO inhibitors” (Bristol-Myers Squibb Company, priority 2013, dated 2017).

In this assay the target is IDO (Homo sapiens, UniProt P14902). As to the kind of experiment: LLE_IDO_ABS_DR (IDO assay).
IDO, sequence (P14902 whole entry): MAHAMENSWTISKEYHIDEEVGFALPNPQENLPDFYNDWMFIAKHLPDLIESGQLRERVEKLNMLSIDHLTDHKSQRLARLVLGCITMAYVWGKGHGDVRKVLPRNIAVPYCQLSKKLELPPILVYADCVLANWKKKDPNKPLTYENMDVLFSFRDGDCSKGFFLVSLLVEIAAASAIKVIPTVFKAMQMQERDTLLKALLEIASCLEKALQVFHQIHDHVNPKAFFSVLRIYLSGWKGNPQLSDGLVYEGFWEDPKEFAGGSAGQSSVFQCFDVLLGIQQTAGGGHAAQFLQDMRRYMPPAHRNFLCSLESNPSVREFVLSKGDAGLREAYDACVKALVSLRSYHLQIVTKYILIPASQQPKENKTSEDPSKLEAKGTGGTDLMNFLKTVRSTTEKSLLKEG
What is called IC50 is the concentration at which inhibition is half-maximal. A high value points to weaker potency. With `C#Cc1ccccc1NC(=O)Nc1cc(-c2ccccc2-c2nnn[nH]2)ccc1N(CC(C)C)CC(C)C` [Example 277, 1-(4-(diisobutylamino)-2′-(1H-tetrazol-5-yl)-[1,1′-biphenyl]-3-yl)-3-(2-ethynylphenyl)urea], the IC50 worked out at 160 nM.

As to `C#Cc1ccc(NC(=O)Nc2cc(-c3ccccc3-c3nnn[nH]3)ccc2N(CC(C)C)CC(C)C)cc1` [Example 278, 1-(4-(diisobutylamino)-2′-(1H-tetrazol-5-yl)-[1,1′-biphenyl]-3-yl)-3-(4-ethynylphenyl)urea], the midpoint of inhibition, the IC50, lay at 1.31 nM.

With `CC(C)CN(CC(C)C)c1ccc(-c2ccccc2-c2nnn[nH]2)cc1NC(=O)Nc1ccc(F)c(S(C)(=O)=O)c1` [Example 279, 1-(4-(diisobutylamino)-2′-(1H-tetrazol-5-yl)-[1,1′-biphenyl]-3-yl)-3-(4-fluoro-3-(methylsulfonyl)phenyl) urea], the half-maximal inhibitory concentration (IC50) stood at 5050 nM.

`CC(C)CN(CC(C)C)c1ccc(-c2ccccc2-c2nnn[nH]2)cc1NC(=O)Nc1ccccc1OC(F)F` [Example 280, 1-(2-(difluoromethoxy)phenyl)-3-(4-(diisobutylamino)-2′-(1H-tetrazol-5-yl)biphenyl-3-yl)urea] had an IC50 of 2390 nM.

`COc1ccccc1NC(=O)Nc1cc(-c2ccccc2-c2nnn[nH]2)ccc1N(CC(C)C)CC(C)C` [Example 281, 1-(4-(diisobutylamino)-2′-(1H-tetrazol-5-yl)biphenyl-3-yl)-3-(2-methoxyphenyl)urea]: the IC50 was determined as 1450 nM.

With `CC(C)CN(CC(C)C)c1ccc(-c2ccccc2-c2nnn[nH]2)cc1NC(=O)Nc1c(F)cc(F)cc1F` [Example 282, 1-(4-(diisobutylamino)-2′-(1H-tetrazol-5-yl)-[1,1′-biphenyl]-3-yl)-3-(2,4,6-trifluorophenyl)urea], the half-maximal inhibitory concentration (IC50) was found to be 8.2 nM.

For `CC(C)CN(CC(C)C)c1ccc(-c2ccccc2-c2nn[nH]n2)cc1NC(=O)Nc1c(F)cccc1F` [Example 283, 1-(2,6-difluorophenyl)-3-(4-(diisobutylamino)-2′-(2H-tetrazol-5-yl)-[1,1′-biphenyl]-3-yl)urea], the half-inhibitory concentration (IC50) was found to be 10 nM.

In the case of `CC(C)CN(CC(C)C)c1ccc(-c2ccccc2-c2nnn[nH]2)cc1NC(=O)Nc1ccc(S(C)(=O)=O)cc1F` [Example 284, 1-(4-(diisobutylamino)-2′-(1H-tetrazol-5-yl)-[1,1′-biphenyl]-3-yl)-3-(2-fluoro-4-(methylsulfonyl)phenyl)urea], the IC50 was found to be 2090 nM.

As for `CC(C)CN(CC(C)C)c1ccc(-c2ccccc2-c2nnn[nH]2)cc1NC(=O)Nc1ccc(N=[N+]=[N-])cc1` [Example 285, 1-(4-azidophenyl)-3-(4-(diisobutylamino)-2′-(1H-tetrazol-5-yl)-[1,1′-biphenyl]-3-yl)urea], the IC50 stood at 2.28 nM.

Take `CC(C)CN(CC(C)C)c1ccc(-c2ccccc2-c2nnn[nH]2)cc1NC(=O)Nc1ccc(F)c(Cl)c1` [Example 286, 1-(3-chloro-4-fluorophenyl)-3-(4-(diisobutylamino)-2′-(1H-tetrazol-5-yl)biphenyl-3-yl)urea]: the IC50 was 110 nM.

`Cc1ccc(NC(=O)Nc2cc(-c3ccccc3-c3nnn[nH]3)ccc2N(CC(C)C)CC(C)C)cc1F` [Example 287, 1-(4-(diisobutylamino)-2′-(1H-tetrazol-5-yl)-[1,1′-biphenyl]-3-yl)-3-(3-fluoro-4-methylphenyl)urea] displayed an IC50 of 4.47 nM.

Regarding `CC(C)CN(CC(C)C)c1ccc(-c2ccccc2-c2nnn[nH]2)cc1NC(=O)NC(C)(C)CC(C)(C)C` [Example 288, 1-(4-(Diisobutylamino)-2′-(1H-tetrazol-5-yl)-[1,1′-biphenyl]-3-yl)-3-(2,4,4-trimethylpentan-2-yl)urea], the half-inhibitory concentration (IC50) turned out to be 9120 nM.

The compound `Cc1ccc(NC(=O)Nc2cc(-c3ccccc3-c3nnn[nH]3)ccc2N(Cc2ccccc2)CC(C)C)cc1` [Example 289, 1-(4-(Benzyl(isobutyl)amino)-2′-(1H-tetrazol-5-yl)-[1,1′-biphenyl]-3-yl)-3-(p-tolyl)urea] yielded a half-inhibitory concentration (IC50) of 1210 nM.

For the compound `Cc1ccc(NC(=O)Nc2cc(-c3ccccc3-c3nnn[nH]3)ccc2N(Cc2ccccc2)CC(C)C)cc1` [Example 292, 1-(4-(benzyl(isobutyl)amino)-2′-(1H-tetrazol-5-yl)-[1,1′-biphenyl]-3-yl)-3-(p-tolyl)urea], it took 4.03 nM to reach half-maximal inhibition (IC50).

Regarding `O=C(Nc1cc(-c2ccccc2-c2nnn[nH]2)ccc1N(CCc1ccccc1)CCC(F)(F)F)Nc1ccccc1C(F)(F)F` [Example 295, 1-(4-(Phenethyl(3,3,3-trifluoropropyl)amino)-2′-(1H-tetrazol-5-yl)biphenyl-3-yl)-3-(2-(trifluoromethyl)phenyl)urea], half-maximal inhibition (IC50) required 300 nM.

On to `O=C(Nc1ccc(C2CC2)c(F)c1)Nc1cc(-c2ccccc2-c2nnn[nH]2)ccc1N(CCc1ccccc1)CCC(F)(F)F` [Example 296, 1-(4-Cyclopropyl-3-fluorophenyl)-3-(4-(phenethyl(3,3,3-trifluoropropyl)amino)-2′-(1H-tetrazol-5-yl)biphenyl-3-yl)urea], for which 180 nM corresponded to half-maximal inhibition (IC50).

In the case of `O=C(Nc1ccc(C2CC2)c(F)c1)Nc1cc(-c2ccccc2-c2nnn[nH]2)ccc1N(CCCC(F)(F)F)Cc1ccc(Cl)cc1` [Example 297, 1-(4-((4-chlorobenzyl)(4,4,4-trifluorobutyl)amino)-2′-(1H-tetrazol-5-yl)-[1,1′-biphenyl]-3-yl)-3-(4-cyclopropyl-3-fluorophenyl)urea], the IC50 was determined as 10 nM.

For `O=C(Nc1ccc(C2CC2)cc1)Nc1cc(-c2ccccc2-c2nnn[nH]2)ccc1N(CCc1ccccc1)CCC(F)(F)F` [Example 298, 1-(4-cyclopropylphenyl)-3-(4-(phenethyl(3,3,3-trifluoropropyl)amino)-2′-(1H-tetrazol-5-yl)-[1,1′-biphenyl]-3-yl)urea], the IC50 is 80 nM.

Turning to `O=C(Nc1ccc(C(F)(F)F)cc1F)Nc1cc(-c2ccccc2-c2nnn[nH]2)ccc1N(CCC(F)(F)F)Cc1ccc(F)cc1C(F)(F)F` [Example 300, 1-(4-((4-fluoro-2-(trifluoromethyl)benzyl) (3,3,3-trifluoropropyl)amino)-2′-(1H-tetrazol-5-yl)-[1,1′-biphenyl]-3-yl)-3-(2-fluoro-4-(trifluoromethyl)phenyl)urea], inhibition was half-maximal at 180 nM (IC50).

In turn, `O=C(Nc1ccc(C2CC2)cc1)Nc1cc(-c2ccccc2-c2nnn[nH]2)ccc1N(CCC(F)(F)F)Cc1ccccn1` [Example 304, 1-(4-cyclopropylphenyl)-3-(4-((pyridin-2-ylmethyl)(3,3,3-trifluoropropyl)amino)-2′-(1H-tetrazol-5-yl)-[1,1′-biphenyl]-3-yl)urea] came in with an IC50 of 70 nM.

`Cc1ccc(NC(=O)Nc2cc(-c3ccccc3-c3nnn[nH]3)ccc2N2CCC(F)(F)C2)cc1` [Example 315, 1-(4-(3,3-difluoropyrrolidin-1-yl)-2′-(1H-tetrazol-5-yl)-[1,1′-biphenyl]-3-yl)-3-(p-tolyl)urea]: 7770 nM corresponded to half-maximal inhibition (IC50).

In turn, `O=C(Nc1ccc(OC(F)(F)F)cc1)Nc1cc(-c2ccccc2-c2nnn[nH]2)ccc1N1CCC(F)(F)C1` [Example 316, 1-(4-(3,3-difluoropyrrolidin-1-yl)-2′-(1H-tetrazol-5-yl)-[1,1′-biphenyl]-3-yl)-3-(4-(trifluoromethoxy)phenyl)urea] returned an IC50 of 7720 nM.

In turn, `O=C(Nc1ccc(OC(F)(F)F)cc1)Nc1cc(-c2ccccc2-c2nnn[nH]2)ccc1N1CC2CC1CN2Cc1ccccc1` (stereo not drawn) [Example 318, 1-(4-(5-benzyl-2,5-diazabicyclo[2.2.1]heptan-2-yl)-2′-(1H-tetrazol-5-yl)-[1,1′-biphenyl]-3-yl)-3-(4-(trifluoromethoxy)phenyl)urea] gave an IC50 of 120 nM.

`Cc1ccc(NC(=O)Nc2cc(-c3ccccc3-c3nnn[nH]3)ccc2N(CCCC(F)(F)F)Cc2ccc(Cl)cc2)cc1` [Example 320, 1-(4-((4-chlorobenzyl)(4,4,4-trifluorobutyl)amino)-2′-(1H-tetrazol-5-yl)-[1,1′-biphenyl]-3-yl)-3-(p-tolyl)urea] returned a 50% inhibitory concentration (IC50) of 4.85 nM.

In turn, `O=C(Nc1cc(-c2ccccc2-c2nnn[nH]2)ccc1N(CCCC(F)(F)F)Cc1ccc(Cl)cc1)Nc1ccccc1C(F)(F)F` [Example 321, 1-(4-((4-chlorobenzyl)(4,4,4-trifluorobutyl)amino)-2′-(1H-tetrazol-5-yl)-[1,1′-biphenyl]-3-yl)-3-(2-(trifluoromethyl)phenyl)urea] had a half-maximal inhibitory concentration (IC50) of 610 nM.

`O=C(Nc1ccc(OC(F)(F)F)cc1)Nc1cc(-c2ccccc2-c2nnn[nH]2)ccc1N(CCC(F)(F)F)Cc1ccc(F)cc1` [Example 323, 1-(4-((4-fluorobenzyl)(3,3,3-trifluoropropyl)amino)-2′-(1H-tetrazol-5-yl)-[1,1′-biphenyl]-3-yl)-3-(4-(trifluoromethoxy)phenyl)urea] yielded a 50% inhibitory concentration (IC50) of 540 nM.

The compound `O=C(Nc1ccc(F)cc1F)Nc1cc(-c2ccccc2-c2nnn[nH]2)ccc1N(CCC(F)(F)F)Cc1ccc(F)cc1` [Example 324, 1-(2,4-difluorophenyl)-3-(4-((4-fluorobenzyl) (3,3,3-trifluoropropyl)amino)-2′-(1H-tetrazol-5-yl)-[1,1′-biphenyl]-3-yl) urea] showed an IC50 of 160 nM.

The compound `Cc1ccc(NC(=O)Nc2cc(-c3ccccc3-c3nnn[nH]3)ccc2N(CCC(F)(F)F)Cc2ccc(F)cc2)cc1` [Example 325, 1-(4-((4-fluorobenzyl)(3,3,3-trifluoropropyl)amino)-2′-(1H-tetrazol-5-yl)-[1,1′-biphenyl]-3-yl)-3-(p-tolyl)urea] gave an IC50 of 90 nM.

For the compound `O=C(Nc1cc(-c2ccccc2-c2nnn[nH]2)ccc1N(CCC(F)(F)F)Cc1ccc(F)cc1)Nc1ccccc1C(F)(F)F` [Example 326, 1-(4-((4-fluorobenzyl)(3,3,3-trifluoropropyl)amino)-2′-(1H-tetrazol-5-yl)-[1,1′-biphenyl]-3-yl)-3-(2-(trifluoromethyl)phenyl)urea], the IC50 turned out to be 1330 nM.

Compound `O=C(Nc1ccc(OC(F)(F)F)cc1)Nc1cc(-c2ccccc2-c2nnn[nH]2)ccc1N(CCC(F)(F)F)Cc1ccc(C(F)(F)F)cc1` [Example 327, 1-(2′-(1H-tetrazol-5-yl)-4-((4-(trifluoromethyl)benzyl)(3,3,3-trifluoropropyl)amino)-[1,1′-biphenyl]-3-yl)-3-(4-(trifluoromethoxy)phenyl)urea] returned an IC50 of 260 nM.
